# Assay results as given in patent US10829481B2, “Benzimidazole derivatives as modulators of ROR-gamma” (Vitae Pharmaceuticals, LLC, priority 2016, dated 2020).
# Assays:
# [1] = target: recombinant RORγ Ligand Binding Domain (LBD) protein (Homo sapiens (Human), UniProt P51449); assay: Radio-Ligand RORγ Binding Assay (Assay 1); conditions: competition with 25-hydroxy [26,27-3H]-cholesterol, SPA
# Procedure, shortened: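 His-GST-fused RORγ ligand-binding domain (24 nM solution) competed between compounds and tritiated 25-hydroxycholesterol (8.6 nM solution), read by SPA after brief rt incubations in pH 7.4 HEPES/glycerol/detergent buffer. Four-parameter curve fitting gave IC50 at inflection, converted to Ki using radioligand concentration and KD.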
# [2] = target: full-length RORγt in Jurkat cells (Homo sapiens (Human), UniProt P51449); assay: RORγt 5×RORE Assay in Jurkat Cells (Assay 2); assay type: cell-based; conditions: 5×RORE Nanoluc luciferase reporter
# Sequence of full-length RORγt in Jurkat cells (P51449 other isoform, or with tags, fused parts or gaps): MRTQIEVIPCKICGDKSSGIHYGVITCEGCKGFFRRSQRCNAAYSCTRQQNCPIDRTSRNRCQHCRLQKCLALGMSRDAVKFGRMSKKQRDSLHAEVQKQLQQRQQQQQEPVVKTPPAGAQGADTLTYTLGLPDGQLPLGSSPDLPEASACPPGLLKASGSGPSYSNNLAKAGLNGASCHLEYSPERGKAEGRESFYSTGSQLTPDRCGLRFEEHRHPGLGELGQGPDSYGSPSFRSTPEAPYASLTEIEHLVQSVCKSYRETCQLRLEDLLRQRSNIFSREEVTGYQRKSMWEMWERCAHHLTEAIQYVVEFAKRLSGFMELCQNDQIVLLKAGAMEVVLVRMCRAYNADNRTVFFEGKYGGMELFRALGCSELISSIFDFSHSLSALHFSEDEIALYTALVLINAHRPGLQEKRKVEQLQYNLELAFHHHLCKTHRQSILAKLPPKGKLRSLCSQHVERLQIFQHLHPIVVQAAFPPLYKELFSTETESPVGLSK
# Sequence of recombinant RORγ Ligand Binding Domain (LBD) protein (P51449 269-508): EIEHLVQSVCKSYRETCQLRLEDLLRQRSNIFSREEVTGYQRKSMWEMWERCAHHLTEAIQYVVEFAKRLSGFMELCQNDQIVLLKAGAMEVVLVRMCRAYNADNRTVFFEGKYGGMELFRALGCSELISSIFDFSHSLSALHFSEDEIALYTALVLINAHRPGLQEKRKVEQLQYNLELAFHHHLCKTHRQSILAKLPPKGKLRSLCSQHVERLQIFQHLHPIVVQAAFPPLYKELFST
Ki [1] [nM],IC50 [2] [nM],Compound
< 100,< 100,"CCS(=O)(=O)c1ccc(CNC(=O)c2ccc3c(c2)nc(C2CCC2)n3Cc2cccc3c2OC(F)(F)O3)cc1 [I-36, 2-cyclobutyl-1-((2,2-difluorobenzo[d][1,3]dioxol-4-yl)methyl)-N-(4-(ethylsulfonyl)benzyl)-1H-benzo[d]imidazole-5-carboxamide]"
< 100,< 100,"CCS(=O)(=O)c1ccc(CNC(=O)c2ccc3c(c2)nc(C(F)F)n3Cc2cccc3c2OC(F)(F)O3)cc1 [I-37, 1-((2,2-difluorobenzo[d][1,3]dioxol-4-yl)methyl)-2-(difluoromethyl)-N-(4-(ethylsulfonyl)benzyl)-1H-benzo[d]imidazole-5-carboxamide]"
< 100,< 100,"CCS(=O)(=O)c1ccc(CNC(=O)c2ccc3c(c2)nc(C(C)(F)F)n3Cc2cccc3c2OC(F)(F)O3)cc1 [I-38, 1-((2,2-difluorobenzo[d][1,3]dioxol-4-yl)methyl)-2-(1,1-difluoroethyl)-N-(4-(ethylsulfonyl)benzyl)-1H-benzo[d]imidazole-5-carboxamide]"
< 100,< 100,"CCS(=O)(=O)c1ccc(CNC(=O)c2ccc3c(c2)nc([C@H]2CCCO2)n3Cc2cccc3c2OC(F)(F)O3)cc1 [I-39.1, (R)-1-((2,2-difluorobenzo[d][1,3]dioxol-4-yl)methyl)-N-(4-(ethylsulfonyl)benzyl)-2-(tetrahydrofuran-2-yl)-1H-benzo[d]imidazole-5-carboxamide]"
< 100,< 100,"CCS(=O)(=O)c1ccc(CNC(=O)c2ccc3c(c2)nc([C@@H]2CCCO2)n3Cc2cccc3c2OC(F)(F)O3)cc1 [I-39.2, (S)-1-((2,2-difluorobenzo[d][1,3]dioxol-4-yl)methyl)-N-(4-(ethylsulfonyl)benzyl)-2-(tetrahydrofuran-2-yl)-1H-benzo[d]imidazole-5-carboxamide]"
< 100,< 100,"CS(=O)(=O)c1ccc(CNC(=O)c2ccc3c(c2)nc(C2(F)CC2)n3Cc2cccc3c2OC(F)(F)O3)cc1 [I-40, 1-((2,2-difluorobenzo[d][1,3]dioxol-4-yl)methyl)-2-(1-fluorocyclopropyl)-N-(4-(methylsulfonyl)benzyl)-1H-benzo[d]imidazole-5-carboxamide]"
< 100,< 100,"O=C(NCc1ccc(S(=O)(=O)CCO)cc1)c1ccc2c(c1)nc(C1(F)CC1)n2Cc1cccc2c1OC(F)(F)O2 [I-41, 1-((2,2-difluorobenzo[d][1,3]dioxol-4-yl)methyl)-2-(1-fluorocyclopropyl)-N-(4-((2-hydroxyethyl)sulfonyl)benzyl)-1H-benzo[d]imidazole-5-carboxamide]"
< 100,< 100,"CNS(=O)(=O)c1ccc(CNC(=O)c2ccc3c(c2)nc(C2(F)CC2)n3Cc2cccc3c2OC(F)(F)O3)cc1 [I-42, 1-((2,2-difluorobenzo[d][1,3]dioxol-4-yl)methyl)-2-(1-fluorocyclopropyl)-N-(4-(N-methylsulfamoyl)benzyl)-1H-benzo[d]imidazole-5-carboxamide]"
< 100,< 100,"CCS(=O)(=O)c1ccc(CNC(=O)c2ccc3c(c2)nc(C2(F)CCC2)n3Cc2cccc3c2OC(F)(F)O3)cc1 [I-43, 1-((2,2-difluorobenzo[d][1,3]dioxol-4-yl)methyl)-N-(4-(ethylsulfonyl)benzyl)-2-(1-fluorocyclobutyl)-1H-benzo[d]imidazole-5-carboxamide]"
< 100,< 100,"O=C(NCc1ccc(S(=O)(=O)CCO)cc1)c1ccc2c(c1)nc(C(F)(F)F)n2Cc1cccc2c1OC(F)(F)O2 [I-45, 1-((2,2-difluorobenzo[d][1,3]dioxol-4-yl)methyl)-N-(4-((2-hydroxyethyl)sulfonyl)benzyl)-2-(trifluoromethyl)-1H-benzo[d]imidazole-5-carboxamide]"
< 100,< 100,"CNS(=O)(=O)c1ccc(CNC(=O)c2ccc3c(c2)nc(C(F)(F)F)n3Cc2cccc3c2OC(F)(F)O3)cc1 [I-46, 1-((2,2-difluorobenzo[d][1,3]dioxol-4-yl)methyl)-N-(4-(N-methylsulfamoyl)benzyl)-2-(trifluoromethyl)-1H-benzo[d]imidazole-5-carboxamide]"
< 100,< 100,"O=C(NCc1ccc(S(=O)(=O)CCO)cc1)c1ccc2c(c1)nc(C1CC1)n2Cc1cccc2c1OC(F)(F)O2 [I-47, 2-cyclopropyl-1-((2,2-difluorobenzo[d][1,3]dioxol-4-yl)methyl)-N-(4-((2-hydroxyethyl)sulfonyl)benzyl)-1H-benzo[d]imidazole-5-carboxamide]"
< 100,< 100,"CS(=O)(=O)c1ccc(CNC(=O)c2ccc3c(c2)nc(C(F)(F)F)n3Cc2cccc3c2OC(F)(F)O3)cc1 [I-48, 1-((2,2-difluorobenzo[d][1,3]dioxol-4-yl)methyl)-N-(4-(methylsulfonyl)benzyl)-2-(trifluoromethyl)-1H-benzo[d]imidazole-5-carboxamide]"
< 100,< 100,"CS(=O)(=O)c1ccc(CNC(=O)c2ccc3c(c2)nc(C(F)F)n3Cc2cccc3c2OC(F)(F)O3)cc1 [I-50, 1-((2,2-difluorobenzo[d][1,3]dioxol-4-yl)methyl)-2-(difluoromethyl)-N-(4-(methylsulfonyl)benzyl)-1H-benzo[d]imidazole-5-carboxamide]"
< 100,100 to 1000,"NS(=O)(=O)c1ccc(CNC(=O)c2ccc3c(c2)nc(C(F)(F)F)n3Cc2cccc3c2OC(F)(F)O3)cc1 [I-51, 1-((2,2-difluorobenzo[d][1,3]dioxol-4-yl)methyl)-N-(4-sulfamoylbenzyl)-2-(trifluoromethyl)-1H-benzo[d]imidazole-5-carboxamide]"
< 100,< 100,"CCCS(=O)(=O)c1ccc(CNC(=O)c2ccc3c(c2)nc(C(F)(F)F)n3Cc2cccc3c2OC(F)(F)O3)cc1 [I-52, 1-((2,2-difluorobenzo[d][1,3]dioxol-4-yl)methyl)-N-(4-(propylsulfonyl)benzyl)-2-(trifluoromethyl)-1H-benzo[d]imidazole-5-carboxamide]"
< 100,100 to 1000,"COC(=O)CS(=O)(=O)c1ccc(CNC(=O)c2ccc3c(c2)nc(C(F)(F)F)n3Cc2cccc3c2OC(F)(F)O3)cc1 [I-53, methyl 2-((4-((1-((2,2-difluorobenzo[d][1,3]dioxol-4-yl)methyl)-2-(trifluoromethyl)-1H-benzo[d]imidazole-5-carboxamido)methyl)phenyl)sulfonyl)acetate]"
< 100,< 100,"CCS(=O)(=O)c1ccc(CNC(=O)c2ccc3c(c2)nc(C(C)(C)OC)n3Cc2cccc3c2OC(F)(F)O3)cc1 [I-54, 1-((2,2-difluorobenzo[d][1,3]dioxol-4-yl)methyl)-N-(4-(ethylsulfonyl)benzyl)-2-(2-methoxypropan-2-yl)-1H-benzo[d]imidazole-5-carboxamide]"
< 100,100 to 1000,"CCS(=O)(=O)c1ccc(CNC(=O)c2ccc3c(c2)nc(OC)n3Cc2cccc3c2OC(F)(F)O3)cc1 [I-55, 1-((2,2-difluorobenzo[d][1,3]dioxol-4-yl)methyl)-N-(4-(ethylsulfonyl)benzyl)-2-methoxy-1H-benzo[d]imidazole-5-carboxamide]"
< 100,< 100,"CCS(=O)(=O)c1ccc(CNC(=O)c2ccc3c(c2)nc([C@@H]2C[C@H]2C#N)n3Cc2cccc3c2OC(F)(F)O3)cc1 [I-57, 2-((1R,2R)-2-cyanocyclopropyl)-1-((2,2-difluorobenzo[d][1,3]dioxol-4-yl)methyl)-N-(4-(ethylsulfonyl)benzyl)-1H-benzo[d]imidazole-5-carboxamide]"
< 100,100 to 1000,"CCS(=O)(=O)c1ccc(CNC(=O)c2ccc3c(c2)nc([C@@H]2C[C@H]2C(=O)OC)n3Cc2cccc3c2OC(F)(F)O3)cc1 [I-58, methyl(1R,2R)-2-(1-((2,2-difluorobenzo[d][1,3]dioxol-4-yl)methyl)-5-((4-(ethylsulfonyl)benzyl)carbamoyl)-1H-benzo[d]imidazol-2-yl)cyclopropane-1-carboxylate]"
< 100,< 100,"CCS(=O)(=O)c1ccc([C@H](COC)NC(=O)c2ccc3c(c2)nc(C(F)(F)F)n3Cc2cccc3c2OC(F)(F)O3)cc1 [I-59, (R)-1-((2,2-difluorobenzo[d][1,3]dioxol-4-yl)methyl)-N-(1-(4-(ethylsulfonyl)phenyl)-2-methoxyethyl)-2-(trifluoromethyl)-1H-benzo[d]imidazole-5-carboxamide]"
< 100,< 100,"CCS(=O)(=O)c1ccc([C@H](COC)NC(=O)c2ccc3c(c2)nc(C2CC2)n3Cc2cccc3c2OC(F)(F)O3)cc1 [I-60, (R)-2-cyclopropyl-1-((2,2-difluorobenzo[d][1,3]dioxol-4-yl)methyl)-N-(1-(4-(ethylsulfonyl)phenyl)-2-methoxyethyl)-1H-benzo[d]imidazole-5-carboxamide]"
< 100,< 100,"CCS(=O)(=O)c1ccc([C@H](COC)NC(=O)c2ccc3c(c2)nc(C2(F)CC2)n3Cc2cccc3c2OC(F)(F)O3)cc1 [I-61, (R)-1-((2,2-difluorobenzo[d][1,3]dioxol-4-yl)methyl)-N-(1-(4-(ethylsulfonyl)phenyl)-2-methoxyethyl)-2-(1-fluorocyclopropyl)-1H-benzo[d]imidazole-5-carboxamide]"
< 100,< 100,"CCS(=O)(=O)c1ccc([C@H](COC)NC(=O)c2ccc3c(c2)nc(C(F)(F)F)n3Cc2cccc3c2OC(F)(F)O3)nc1 [I-62, (R)-1-((2,2-difluorobenzo[d][1,3]dioxol-4-yl)methyl)-N-(1-(5-(ethylsulfonyl)pyridin-2-yl)-2-methoxyethyl)-2-(trifluoromethyl)-1H-benzo[d]imidazole-5-carboxamide]"
